Tests used:
[1] = system: Klebsiella pneumoniae; assay: Antibacterial activity against Klebsiella pneumoniae TYPE1 after 18 hrs by microbroth dilution method; format: functional; conditions: TYPE1, 18 h
[2] = AUC (0 to 8 hrs) in Crj:CD rat liver at 5 mg/kg, po; format: ADME, organism-based; design: time < 8 hr, dose 5 mg/kg, route oral
[3] = Drug recovery in cynomolgus monkey urine at 5 mg/kg, po after 24 hrs; format: ADME, organism-based, Macaca fascicularis; design: dose 5 mg/kg, route oral; conditions: read-out: Drug recovery
[4] = AUC (0 to 8 hrs) in Crj:CD rat kidney at 5 mg/kg, po; format: ADME, organism-based; design: time < 8 hr, dose 5 mg/kg, route oral
[5] = Plasma protein binding in human at 10 ug/mL by ultrafiltration method; format: ADME, cell-free; conditions: read-out: PPB (converted)
[6] = system: Streptococcus pyogenes; assay: Antibacterial activity against Streptococcus pyogenes G-36 after 18 hrs by microbroth dilution method; format: functional; conditions: G-36, 18 h
[7] = system: Staphylococcus aureus; assay: Antibacterial activity against Staphylococcus aureus FDA 209-P after 18 hrs by microbroth dilution method; format: functional
[8] = system: Streptococcus pneumoniae; assay: Antibacterial activity against quinolone, penicillin-resistant Streptococcus pneumoniae 104835 after 18 hrs by microbroth dilution method; format: functional; conditions: Streptococcus pneumoniae, 104835, 18 h
[9] = AUC (0 to 8 hrs) in cynomolgus monkey serum at 10 mg/kg, iv; format: ADME, organism-based, Macaca fascicularis, Plasma; design: time < 8 hr, dose 10 mg/kg, route intravenous
[10] = Primary phase half life in cynomolgus monkey serum at 10 mg/kg, iv; format: ADME, organism-based, Macaca fascicularis; design: dose 10 mg/kg, route intravenous; conditions: read-out: alphat1/2 (converted)
[11] = system: Bacillus subtilis; assay: Antibacterial activity against Bacillus subtilis IID 685 after 18 hrs by microbroth dilution method; format: functional; conditions: IID 685, 18 h
[12] = AUC (0 to 24 hrs) in cynomolgus monkey serum at 5 mg/kg, po; format: ADME, organism-based, Macaca fascicularis, Plasma; design: time < 24 hr, dose 5 mg/kg, route oral
[13] = AUC (0 to 8 hrs) in Crj:CD rat serum at 5 mg/kg, po; format: ADME, organism-based; design: time < 8 hr, dose 5 mg/kg, route oral
[14] = Cmax in cynomolgus monkey serum at 5 mg/kg, po; format: ADME, organism-based, Macaca fascicularis; design: dose 5 mg/kg, route oral
[15] = system: Mycoplasmoides pneumoniae; assay: Antibacterial activity against Mycoplasma pneumoniae ATCC 29085 after 18 hrs by microbroth dilution method; format: functional; conditions: ATCC 29085, 18 h
[16] = system: Staphylococcus epidermidis; assay: Antibacterial activity against Staphylococcus epidermidis 56500 after 18 hrs by microbroth dilution method; format: functional; conditions: Staphylococcus epidermidis, 56500, 18 h
[17] = biological target: T1, hERG (KCNH2) (Homo sapiens, UniProt Q12809); assay: Inhibition of human ERG expressed in CHOK1 cells at 30 uM; format: cell-based; conditions: CHO-K1 cells expressing hERG
T1 sequence (Q12809 whole entry): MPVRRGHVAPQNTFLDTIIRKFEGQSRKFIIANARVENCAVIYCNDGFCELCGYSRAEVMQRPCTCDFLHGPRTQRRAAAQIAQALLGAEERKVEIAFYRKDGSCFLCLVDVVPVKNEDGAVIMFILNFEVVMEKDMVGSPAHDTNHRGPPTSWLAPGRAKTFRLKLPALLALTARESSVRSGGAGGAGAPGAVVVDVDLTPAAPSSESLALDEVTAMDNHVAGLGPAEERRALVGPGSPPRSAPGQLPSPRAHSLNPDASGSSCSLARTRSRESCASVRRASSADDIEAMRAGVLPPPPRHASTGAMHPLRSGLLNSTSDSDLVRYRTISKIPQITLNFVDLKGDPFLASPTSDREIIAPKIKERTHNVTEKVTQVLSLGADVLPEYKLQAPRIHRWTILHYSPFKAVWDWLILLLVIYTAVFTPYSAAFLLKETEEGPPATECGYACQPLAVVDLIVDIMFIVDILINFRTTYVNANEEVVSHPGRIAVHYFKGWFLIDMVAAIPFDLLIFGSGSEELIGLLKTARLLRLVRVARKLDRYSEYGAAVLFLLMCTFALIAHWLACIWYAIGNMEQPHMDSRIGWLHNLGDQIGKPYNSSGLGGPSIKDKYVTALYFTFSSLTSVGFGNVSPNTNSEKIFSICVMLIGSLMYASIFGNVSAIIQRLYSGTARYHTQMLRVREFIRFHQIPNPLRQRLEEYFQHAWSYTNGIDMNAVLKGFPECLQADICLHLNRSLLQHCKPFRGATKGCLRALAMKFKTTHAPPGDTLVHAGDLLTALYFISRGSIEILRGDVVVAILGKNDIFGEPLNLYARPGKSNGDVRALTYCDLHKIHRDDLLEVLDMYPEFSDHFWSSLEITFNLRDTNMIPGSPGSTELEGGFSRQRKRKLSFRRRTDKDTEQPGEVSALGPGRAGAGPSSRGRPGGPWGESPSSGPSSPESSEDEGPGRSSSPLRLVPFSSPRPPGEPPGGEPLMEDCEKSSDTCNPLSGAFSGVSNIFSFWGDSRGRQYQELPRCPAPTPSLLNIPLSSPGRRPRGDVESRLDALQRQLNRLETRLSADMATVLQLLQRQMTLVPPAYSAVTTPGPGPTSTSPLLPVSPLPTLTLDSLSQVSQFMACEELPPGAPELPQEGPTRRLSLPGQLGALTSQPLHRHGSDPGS

[18] = Half life in cynomolgus monkey serum at 5 mg/kg, po; format: ADME, organism-based, Macaca fascicularis; design: dose 5 mg/kg, route oral
[19] = system: Chlamydia pneumoniae; assay: Antibacterial activity against Chlamydophila pneumoniae AR39 after 18 hrs by microbroth dilution method; format: functional; conditions: AR39, 18 h
[20] = system: Staphylococcus aureus; assay: Antibacterial activity against levofloxacin-resistant and methicillin-resistant Staphylococcus aureus 870307 after 18 hrs by microbroth dilution method; format: functional; conditions: Staphylococcus aureus, 870307, 18 h
[21] = Drug uptake in cynomolgus monkey serum at 10 mg/kg, iv after 5 mins; format: ADME, organism-based, Macaca fascicularis; design: dose 10 mg/kg, route intravenous; conditions: read-out: Drug uptake
[22] = Cmax in Crj:CD rat serum at 5 mg/kg, po; format: ADME, organism-based; design: dose 5 mg/kg, route oral
[23] = system: Enterococcus faecalis; assay: Antibacterial activity against Enterococcus faecalis ATCC 19433 after 18 hrs by microbroth dilution method; format: functional; conditions: ATCC 19433, 18 h
[24] = system: Streptococcus pneumoniae; assay: Antibacterial activity against levofloxacin-intermediate and levofloxacin-resistant Streptococcus pneumoniae after 18 hrs by microbroth dilution method; format: functional
[25] = system: Streptococcus pneumoniae; assay: Antibacterial activity against penicillin-susceptible Streptococcus pneumoniae J24 after 18 hrs by microbroth dilution method; format: functional; conditions: J24, 18 h
[26] = system: Moraxella catarrhalis; assay: Antibacterial activity against Moraxella catarrhalis ATCC 25238 after 18 hrs by microbroth dilution method; format: functional; conditions: ATCC 25238, 18 h
[27] = system: Pseudomonas aeruginosa; assay: Antibacterial activity against Pseudomonas aeruginosa PAO1 after 18 hrs by microbroth dilution method; format: functional; conditions: PAO1, 18 h
[28] = system: Haemophilus influenzae; assay: Antibacterial activity against Haemophilus influenzae ATCC 49247 after 18 hrs by microbroth dilution method; format: functional; conditions: ATCC 49247, 18 h
[29] = Drug recovery in Crj:CD rat urine at 5 mg/kg, po after 24 hrs; format: ADME, organism-based; design: dose 5 mg/kg, route oral; conditions: read-out: Drug recovery
[30] = system: Chlamydia pneumoniae; assay: Antibacterial activity against Chlamydophila pneumoniae CM-1 after 18 hrs by microbroth dilution method; format: functional; conditions: CM-1, 18 h
[31] = Drug recovery in cynomolgus monkey urine at 10 mg/kg, iv after 24 hrs; format: ADME, organism-based, Macaca fascicularis; design: dose 10 mg/kg, route intravenous; conditions: read-out: Drug recovery
[32] = biological target: T1, hERG (KCNH2); assay: Inhibition of human ERG expressed in CHOK1 cells at 100 uM; format: cell-based; conditions: CHO-K1 cells expressing hERG
[33] = system: Mycoplasmoides pneumoniae; assay: Antibacterial activity against Mycoplasma pneumoniae 18-1 after 18 hrs by microbroth dilution method; format: functional; conditions: 18-1, 18 h
[34] = AUC (0 to 8 hrs) in Crj:CD rat lung at 5 mg/kg, po; format: ADME, organism-based; design: time < 8 hr, dose 5 mg/kg, route oral
[35] = Ratio of AUC (0 to 8 hrs) in Crj:CD rat kidney to AUC (0 to 8 hrs) in Crj:CD rat serum at 5 mg/kg, po; format: ADME, organism-based; design: dose 5 mg/kg, route oral; conditions: read-out: Ratio AUC
[36] = Aqueous solubility of the compound; format: physicochemical
[37] = Bioavailability in cynomolgus monkey at 5 mg/kg, po; format: ADME, organism-based, Macaca fascicularis; conditions: in vivo
[38] = AUC (0 to 8 hrs) in cynomolgus monkey serum at 5 mg/kg, iv; format: ADME, organism-based, Macaca fascicularis, Plasma; design: time < 8 hr, dose 5 mg/kg, route intravenous
[39] = Drug uptake in cynomolgus monkey serum at 5 mg/kg, iv after 5 mins; format: ADME, organism-based, Macaca fascicularis; design: dose 5 mg/kg, route intravenous; conditions: read-out: Drug uptake
[40] = system: Escherichia coli; assay: Antibacterial activity against Escherichia coli NIHJ after 18 hrs by microbroth dilution method; format: functional
[41] = Plasma protein binding in human at 5 ug/mL by ultrafiltration method; format: ADME, cell-free; conditions: read-out: PPB (converted)
[42] = Drug recovery in cynomolgus monkey urine at 5 mg/kg, iv after 24 hrs; format: ADME, organism-based, Macaca fascicularis; design: dose 5 mg/kg, route intravenous; conditions: read-out: Drug recovery
[43] = Primary phase half life in cynomolgus monkey serum at 5 mg/kg, iv; format: ADME, organism-based, Macaca fascicularis; design: dose 5 mg/kg, route intravenous; conditions: read-out: alphat1/2 (converted)
[44] = Ratio of AUC (0 to 8 hrs) in Crj:CD rat liver to AUC (0 to 8 hrs) in Crj:CD rat serum at 5 mg/kg, po; format: ADME, organism-based; design: dose 5 mg/kg, route oral; conditions: read-out: Ratio AUC
[45] = Ratio of AUC (0 to 8 hrs) in Crj:CD rat lung to AUC (0 to 8 hrs) in Crj:CD rat serum at 5 mg/kg, po; format: ADME, organism-based; design: dose 5 mg/kg, route oral; conditions: read-out: Ratio AUC
[46] = Chloroform-phosphate buffer apparent partition coefficient of the compound, P at pH 7.4

SMILES	MIC [1] [µg/mL]	AUC(0-t) at 8 h [2] [ng·h/mL]	dose excreted at 24 h [3] [%]	AUC(0-t) at 8 h [4] [ng·h/mL]	MIC [6] [µg/mL]	MIC [7] [µg/mL]	MIC [8] [µg/mL]	MIC [11] [µg/mL]	AUC(0-t) at 24 h [12] [ng·h/mL]	AUC(0-t) at 8 h [13] [ng·h/mL]	Cmax [14] [ng/mL]	inhibition at 30 µM [17] [%]	half-life [18] [h]	MIC [20] [µg/mL]	Cmax [22] [ng/mL]	MIC [25] [µg/mL]	MIC [26] [µg/mL]	MIC [27] [µg/mL]	MIC [28] [µg/mL]	dose excreted at 24 h [29] [%]	other results
C[C@H]1COc2c(N3CCN(C)CC3)c(F)cc3c(=O)c(C(=O)O)cn1c23.C[C@H]1COc2c(N3CCN(C)CC3)c(F)cc3c(=O)c(C(=O)O)cn1c23.O [LEVOFLOXACIN]	0.05	16400	73.9	19300	0.78	0.1	> 6.25	1.56	15200	3410	1920	-0.9	3.5	> 6.25	1470	0.78	0.025	0.39	0.012	80	fraction unbound at 10 ug/mL [5]: 0.678; AUC(0-t) at 8 h [9]: 15500 ng·h/mL; half-life [10]: 3.2 h; MIC [15]: 1 µg/mL; MIC [16]: 0.39 µg/mL; MIC [19]: 0.5 µg/mL; concentration at 5 min [21]: 4170 ng/mL; MIC [23]: 0.78 µg/mL; MIC50 [24]: 8 µg/mL; MIC80 [24]: 16 µg/mL; MIC90 [24]: 16 µg/mL; MIC [30]: 0.5 µg/mL; dose excreted at 24 h [31]: 80.7%; inhibition at 100 µM [32]: 4.2%; MIC [33]: 2 µg/mL; AUC(0-t) at 8 h [34]: 5570 ng·h/mL
COc1c(N2C[C@@H](N)C3(CC3)C2)c(F)cc2c(=O)c(C(=O)O)cn([C@@H]3C[C@@H]3F)c12.Cl.O	0.05	15000	41	19300	0.05	0.012	0.2	0.05	9450	1590	1270	5.2	3.1	0.39	816	0.05	0.012	0.2	< 0.003	23.1	Kp [35]: 12.2; solubility [36]: 446 µg/mL; bioavailability [37]: 49%; AUC(0-t) at 8 h [38]: 19400 ng·h/mL; concentration at 5 min [39]: 4750 ng/mL; MIC [40]: 0.006 µg/mL; fraction unbound at 5 ug/mL [41]: 0.582; dose excreted at 24 h [42]: 50.7%; half-life [43]: 2.1 h; Kp [44]: 9.4; Kp [45]: 4.3; inhibition at 100 µM [32]: 14.1%; P [46]: 8.8; AUC(0-t) at 8 h [34]: 6770 ng·h/mL
